Laboratory results from patent publication US20040023878A1, “Gnrh analogues for treatment of urinary incontinence” (priority 2003, published 2004).
“And” between values parts separate entries of the source, which are not always exact repeats. Identical values can stand only once. “Also recorded” adds a separate entry of the source. Counter-ions that a name gives are not always drawn.

How the values were obtained:
[1] = system: excessive growth of the undercoat (baby coat) due to spaying; experiment: Two cocker spaniel bitches with excessive growth of the undercoat due to spaying, slow-release s.c. implant; format: in vivo, dog; details: 5 mg slow release s.c.
Experimental: Two cocker spaniel bitches belonging to the same owner were showing excessive growth of the undercoat due to spaying. […] Both dogs were first clinically examined and thereafter a GnRH analogue (Deslorelin) in a dosage of 5 mg, in slow release form, was subcutaneously implanted between the shoulder blades.

[2] = system: dogs suffering from urinary incontinence; experiment: Double-blind, placebo-control study with open label phase in 16 client owned dogs suffering from urinary incontinence; format: in vivo, dog; details: ongoing study
Experimental: In a second ongoing study, 16 client owned dogs suffering from urinary incontinence were enrolled in a double-blind, placebo-control study. In the initial phase of the study, dogs were randomly assigned to treatment with a long-acting GnRH analogue (leuprolide acetate) or placebo (dog owners and the investigators were blinded to treatment) along with a short course of therapy with phenylpropanolamine. 5 weeks after treatment with drug or placebo, dogs were evaluated and, if not fully continent, treated with a long-acting GnRH analogue (leuprolide acetate) in an open label phase of the study. To date only 1 of 10 dogs treated with placebo became continent vs. […] treated with drug during the blinded portion of the study. Overall, the results generated thus far indicate […] dogs treated with the long-acting GnRH analogue became continent and […] improved after discontinuation of the short acting phenylpropanolamine. Only 1 dog of 15 treated with the GnRH analogue was considered not to have improved following treatment with the drug.

stress incontinence = experiment: Menopausal person with stress incontinence, 24 hour pad test; format: in vivo, human; details: single dose 3.75 mg, one person
Experimental: A second menopausal person, suffering from stress incontinence for at least 6 years, was treated with a single dose of 3.75 mg of leuprolide acetate. 24 hour pad tests conducted prior to treatment with the drug indicated they lost between 10 and 130 ml of urine on a daily basis due to their incontinence.

[3] = system: bitches suffering from urinary incontinence after spaying; experiment: Fifteen bitches with urinary incontinence after spaying, given a slow-release s.c. GnRH analogue implant plus phenylpropanolamine for a limited period; format: in vivo, dog; details: for Side effects: dash = none
Experimental: Additionally, for a limited period the dogs were treated with phenylpropanolamine in a dosage of 1.5 mg/kg BW tid orally.
After discontinuation of the shortacting phenylpropanolamine 8 bitches remained continent. Their continence was therefore achieved solely by the treatment with the composition as described in the present invention. Seven out of fifteen dogs seemed to be much happier and in none of the dogs did the general condition deteriorate. […] The respective results are shown in more detail in table 1.

[4] = system: urinary incontinence of the bitch; details: 1.5 mg/kg BW p.o. given every 8 hours; incontinent spayed bitches; cited from earlier work
[5] = system: urge incontinence and hotflushes; experiment: Perimenopausal person with urge incontinence and hot flushes; format: in vivo, human; details: 3.75 mg; one perimenopausal person
[6] = 11,25 mg slow release s.c. implant, no 'with PPA' mark, individual bitches, listed as Leuprorelin acetate
[7] = 11,25 mg slow release s.c. implant, with PPA, individual bitch
[8] = 6 mg slow release s.c. implant, no 'with PPA' mark, individual bitches
[9] = 12 mg slow release s.c. implant, no 'with PPA' mark, individual bitches

CCNC(=O)[C@@H]1CCCN1C(=O)[C@H](CCCN=C(N)N)NC(=O)[C@H](CC(C)C)NC(=O)[C@@H](Cc1c[nH]c2ccccc12)NC(=O)[C@H](Cc1ccc(O)cc1)NC(=O)[C@H](CO)NC(=O)[C@H](Cc1c[nH]c2ccccc12)NC(=O)[C@H](Cc1cnc[nH]1)NC(=O)[C@@H]1CCC(=O)N1 [Deslorelin]
Coat quality ([1]; 5 weeks after the injection, both dogs): obvious amelioration of the coat quality | Signs of baby coat ([1]; 21 weeks after injection): no signes of “baby coat” were apparent anymore

CCNC(=O)[C@@H]1CCCN1C(=O)[C@H](CCCNC(=N)N)NC(=O)[C@H](CC(C)C)NC(=O)[C@@H](CC(C)C)NC(=O)[C@H](Cc1ccc(O)cc1)NC(=O)[C@H](CO)NC(=O)[C@H](Cc1c[nH]c2ccccc12)NC(=O)[C@H](Cc1c[nH]cn1)NC(=O)[C@@H]1CCC(=O)N1 [Leuprorelinacetate, leuprolide acetate]
Dogs that became continent after discontinuation of phenylpropanolamine, overall ([2]; of 15 dogs treated (blinded plus open label)): 6 dogs | Dogs considered not to have improved following treatment ([2]; of 15 treated): 1 dog | Remaining dogs that improved after discontinuation of phenylpropanolamine ([2]; of the remaining dogs of 15 treated): 9 dogs | Dogs that became continent during the blinded portion of the study ([2]; printed '3 to 8 dogs treated with drug', 5 weeks after treatment, with short course of phenylpropanolamine): 3 dogs | Daily urine loss, pad test (stress incontinence; 2 weeks after treatment, before treatment between 10 and 130 ml daily): 1 mL | Patient's satisfaction with the effects of the therapy (stress incontinence): very satisfied | Duration of effect after treatment ([3]; 11,25 mg slow release s.c. implant, no 'with PPA' mark, individual bitches): 0 days | Duration of effect after treatment [3, 6]: >14 days | Effect on incontinence [3, 6]: 100% | Duration of effect after treatment [3, 7]: >64 days | Effect on incontinence [3, 7]: 100%

CN[C@@H](C)[C@H](O)c1ccccc1 [ephedrinhydrochloride]
Continence achieved [4]: 74% | Showed some improvement [4]: at least 24%

CC(N)C(O)c1ccccc1 (centres unmarked) [phenylpropanolamine]
Continence achieved [4]: 74% | Showed some improvement [4]: at least 24%

Buserelin acetate [Buserelinacetate]
Duration of effect after treatment ([3]; 6,3 mg slow release s.c. implant, individual bitches): 44 days and 83 days | Effect on incontinence ([3]; 6,3 mg slow release s.c. implant, no 'with PPA' mark, individual bitches): 100%

Deslorelin acetate [Deslorelinacetate]
Side effects ([3]; 6 mg slow release s.c. implant, individual bitches): More playfull | Duration of effect after treatment [3, 8]: >47 days and >340 days | Effect on incontinence [3, 8]: 100% | Effect on incontinence ([3]; 6 mg slow release s.c. implant, with PPA, individual bitch): 100% | Side effects ([3]; 12 mg slow release s.c. implant, individual bitches): less aggressive; also recorded: more activ | Duration of effect after treatment [3, 9]: 64 days and >64 days | Effect on incontinence [3, 9]: 100% | Effect on incontinence ([3]; 12 mg slow release s.c. implant, with PPA, individual bitches): 80% and 100% (2×)

Triptorelin acetate [Triptorelinacetate]
Period of improvement of symptoms [5]: about 4 weeks | Duration of effect after treatment ([3]; 3,75 mg slow release s.c. implant (dose too low), individual bitch): 0
